Measured values taken from patent US20140315972A1, “RS)-2-(2-oxo-4-phenylpyrrolidin-1-yl)acetamide compound having modulatory activity with a commensurate effect, pharmaceutical substance (variants) and its application, composition (variants) thereof” (priority 2011, published 2014).
Marks after values point to notes of the source that are not given here.

Key:
rats [1] = experiment: Ischemic stroke (middle cerebral artery occlusion), McGrow scale; format: in vivo
Source text: The stroke condition was simulated in male rats (270-320 g) at a local cerebral hemorrhage, as a hemorrhagic stroke (intracerebral post-traumatic hematoma) by the method of A. N. Makarenko et al (1990) and at cerebral ischemia with distal occlusion of the middle cerebral artery (Chen S. T., Hsu C. Y., Hogan E. L., Maricq H., Balentine J. D. A model of focal ischemic stroke in the rat reproducible extensive cortical infarction//Stroke.—1989, V. 17, No 4, p. 738-743) as an ischemic stroke. Phenotropil was injected intraperitoneally at hemorrhagic stroke at 100 mg/kg immediately after surgery, and one hour before and two hours after the surgery (at doses of 100, 200 and 300 mg/kg) at ischemic stroke. Control animals were treated adequately with distilled water.

mice [2] = experiment: Duration of swimming in cold (2° C.) and normal (25° C.) water; format: in vivo; details: for Duration of swimming at day 28: 4-week administration 50 mg/kg
Description: Stimulatory effect on the duration of swimming in cold (2° C.) and normal (25° C.) water (Table 8.1-8.1.1) of Phenotropil (25 and 50 mg/kg) compared with the control (distilled water) and Benzedrine (2.5 mg/kg) was studied in white outbred male mice (18-26 g) compared to control (distilled water) when intraperitoneally administered, 60 min after the administration and with a course administration for 4 weeks administration on day 28 (Table 8.1.2). […] At normal temperature of water, the effect of Benzedrine was not modified and stayed at 34%.
The advantage of psychomodulator Phenotropil is obvious both with the single dose and the course use, by the effect on physical performance and stability of the body, both in normal and more adverse temperature conditions.

mice [3] = experiment: Hypobaric hypoxia in pressure chamber, adult mice; format: in vivo; details: for Duration of life: adult mice, hypobaric hypoxia
rats [4] = experiment: Hypoxia with hypercapnia in 7-day-old rats; format: in vivo
influenza = experiment: Respiratory viral infection (influenza) of mice during life duration study; format: in vivo; details: influenza outbreak
IL-1 = experiment: Cytokine profile in supernatants of peripheral mononuclear cultures (ELISA), asthenoneurotic patients; format: in vivo, human; details: for IL-1: asthenoneurotic disorders, humans
Description: (§1) The study of immunocompetent activity of Phenotropil included patients with neurasthenia and organic asthenic disorder (20-47 years) of both sexes (men 37%, women 63%). Control group included practically healthy people (20 people). The study groups were similar in age and sex ratio. Phenotropil was administered at a dose of 100 mg/day, one time in the morning for 30 days. Study of the immune and mental status (level of IL-1, IL-2, IL-3, IL-6, α-TNF, α-INF in supernatants of cultures of peripheral mononuclears from whole blood) was carried out before treatment and at days 7, 14, 21 after the therapy course (30 days) and after 3 months of therapy. Blood sampling for analysis was carried out at the same time of day in the control group and in the group of patients. Peripheral mononuclear cells were isolated from the whole blood; interleukin level was determined by ELISA kits (“Immunotech”, France).

IL-2 = experiment: as above; format: in vivo, human; details: for IL-2 (×10): asthenoneurotic disorders, humans
Description: as §1

IL-3 = experiment: as above; format: in vivo, human; details: for IL-3 (×10): asthenoneurotic disorders, humans
Description: as §1

α-TNF = experiment: as above; format: in vivo, human; details: for α-TNF (×100): asthenoneurotic disorders, humans
Description: as §1

[5] = 100 mg/kg i.p. after MCAO, first day
[6] = 100 mg/kg i.p. after MCAO, second day
[7] = 100 mg/kg i.p. after MCAO, third day
[8] = 100 mg/kg i.p. before MCAO, first day
[9] = 100 mg/kg i.p. before MCAO, second day
[10] = 100 mg/kg i.p. before MCAO, third day
[11] = 200 mg/kg i.p. after MCAO, first day
[12] = 200 mg/kg i.p. after MCAO, second day
[13] = 200 mg/kg i.p. after MCAO, third day
[14] = 200 mg/kg i.p. before MCAO, first day
[15] = 200 mg/kg i.p. before MCAO, second day
[16] = 200 mg/kg i.p. before MCAO, third day
[17] = 300 mg/kg i.p. after MCAO, first day
[18] = 300 mg/kg i.p. after MCAO, second day
[19] = 300 mg/kg i.p. after MCAO, third day
[20] = 300 mg/kg i.p. before MCAO, first day
[21] = 300 mg/kg i.p. before MCAO, second day
[22] = 300 mg/kg i.p. before MCAO, third day
[23] = After treatment (one month course)
[24] = patients, 100 mg/day 30 days, after course
[25] = patients, three months after the therapy

For `NC(=O)CN1CC(c2ccccc2)CC1=O` (racemic) [Compound 1, (RS)-2-(2-oxo-4-phenylpyrrolidine-1-yl)acetamide], the “animals (out of 10) with circling movements” value (rats [1]; [5]) was 0*, the “animals (out of 10) with lethargy, slowness of functions” value (“animals (out of 10) with lethargy” for short) (rats [1]; [5]) was 4* and the “animals (out of 10) with tremor” value (rats [1]; [5]) was 2*. For the same molecule, the “animals (out of 10) with unilateral hemiptosis” value (rats [1]; [5]) was 4, the “animals (out of 10) with circling movements” value (rats [1]; [6]) was 0* and the “animals (out of 10) with lethargy” value (rats [1]; [6]) was 3*. For the same molecule, the “animals (out of 10) with tremor” value (rats [1]; [6]) was 0*, the “animals (out of 10) with unilateral hemiptosis” value (rats [1]; [6]) was 5 and the “animals (out of 10) with circling movements” value (rats [1]; [7]) was 0. For the same molecule, the “animals (out of 10) with lethargy” value (rats [1]; [7]) was 2*, the “animals (out of 10) with tremor” value (rats [1]; [7]) was 0 and the “animals (out of 10) with unilateral hemiptosis” value (rats [1]; [7]) was 3. For the same molecule, the “animals (out of 10) with circling movements” value (rats [1]; [8]) was 0*, the “animals (out of 10) with lethargy” value (rats [1]; [8]) was 2* and the “animals (out of 10) with tremor” value (rats [1]; [8]) was 2*. For the same molecule, the “animals (out of 10) with unilateral hemiptosis” value (rats [1]; [8]) was 4, the “animals (out of 10) with circling movements” value (rats [1]; [9]) was 0* and the “animals (out of 10) with lethargy” value (rats [1]; [9]) was 1*. For the same molecule, the “animals (out of 10) with tremor” value (rats [1]; [9]) was 0*, the “animals (out of 10) with unilateral hemiptosis” value (rats [1]; [9]) was 5 and the “animals (out of 10) with circling movements” value (rats [1]; [10]) was 0. The “animals (out of 10) with lethargy” value (rats [1]; [10]) was 1*, the “animals (out of 10) with tremor” value (rats [1]; [10]) was 0 and the “animals (out of 10) with unilateral hemiptosis” value (rats [1]; [10]) was 3. For the same molecule, the “animals (out of 10) with circling movements” value (rats [1]; [11]) was 0*, the “animals (out of 10) with lethargy” value (rats [1]; [11]) was 4* and the “animals (out of 10) with tremor” value (rats [1]; [11]) was 2*. The “animals (out of 10) with unilateral hemiptosis” value (rats [1]; [11]) was 3, the “animals (out of 10) with circling movements” value (rats [1]; [12]) was 0* and the “animals (out of 10) with lethargy” value (rats [1]; [12]) was 3*. The “animals (out of 10) with tremor” value (rats [1]; [12]) was 0*, the “animals (out of 10) with unilateral hemiptosis” value (rats [1]; [12]) was 4 and the “animals (out of 10) with circling movements” value (rats [1]; [13]) was 0. The “animals (out of 10) with lethargy” value (rats [1]; [13]) was 1*, the “animals (out of 10) with tremor” value (rats [1]; [13]) was 0 and the “animals (out of 10) with unilateral hemiptosis” value (rats [1]; [13]) was 3. For the same molecule, the “animals (out of 10) with circling movements” value (rats [1]; [14]) was 0*, the “animals (out of 10) with lethargy” value (rats [1]; [14]) was 3* and the “animals (out of 10) with tremor” value (rats [1]; [14]) was 3*. For the same molecule, the “animals (out of 10) with unilateral hemiptosis” value (rats [1]; [14]) was 4, the “animals (out of 10) with circling movements” value (rats [1]; [15]) was 0* and the “animals (out of 10) with lethargy” value (rats [1]; [15]) was 2*. The “animals (out of 10) with tremor” value (rats [1]; [15]) was 0*, the “animals (out of 10) with unilateral hemiptosis” value (rats [1]; [15]) was 4 and the “animals (out of 10) with circling movements” value (rats [1]; [16]) was 0. For the same molecule, the “animals (out of 10) with lethargy” value (rats [1]; [16]) was 0*, the “animals (out of 10) with tremor” value (rats [1]; [16]) was 0 and the “animals (out of 10) with unilateral hemiptosis” value (rats [1]; [16]) was 3. For the same molecule, the “animals (out of 10) with circling movements” value (rats [1]; [17]) was 0*, the “animals (out of 10) with lethargy” value (rats [1]; [17]) was 4* and the “animals (out of 10) with tremor” value (rats [1]; [17]) was 3*. The “animals (out of 10) with unilateral hemiptosis” value (rats [1]; [17]) was 3, the “animals (out of 10) with circling movements” value (rats [1]; [18]) was 0* and the “animals (out of 10) with lethargy” value (rats [1]; [18]) was 2*. The “animals (out of 10) with tremor” value (rats [1]; [18]) was 0*, the “animals (out of 10) with unilateral hemiptosis” value (rats [1]; [18]) was 5 and the “animals (out of 10) with circling movements” value (rats [1]; [19]) was 0. For the same molecule, the “animals (out of 10) with lethargy” value (rats [1]; [19]) was 1*, the “animals (out of 10) with tremor” value (rats [1]; [19]) was 0 and the “animals (out of 10) with unilateral hemiptosis” value (rats [1]; [19]) was 3. The “animals (out of 10) with circling movements” value (rats [1]; [20]) was 0*, the “animals (out of 10) with lethargy” value (rats [1]; [20]) was 2* and the “animals (out of 10) with tremor” value (rats [1]; [20]) was 2*. The “animals (out of 10) with unilateral hemiptosis” value (rats [1]; [20]) was 4, the “animals (out of 10) with circling movements” value (rats [1]; [21]) was 0* and the “animals (out of 10) with lethargy” value (rats [1]; [21]) was 1*. The “animals (out of 10) with tremor” value (rats [1]; [21]) was 0*, the “animals (out of 10) with unilateral hemiptosis” value (rats [1]; [21]) was 5 and the “animals (out of 10) with circling movements” value (rats [1]; [22]) was 0. The “animals (out of 10) with lethargy” value (rats [1]; [22]) was 0*, the “animals (out of 10) with tremor” value (rats [1]; [22]) was 0 and the “animals (out of 10) with unilateral hemiptosis” value (rats [1]; [22]) was 3. For the same molecule, the Duration of swimming (mice [2]; single dose 25 mg/kg i.p.) was 161.90 ± 15.00 min, the Duration of swimming (mice [2]; single dose 50 mg/kg i.p.) was 209.83 ± 14.85 min and the “Duration of swimming at day 28” value (mice [2]; water 2° C.) was 2.34 ± 0.15 min. The Duration of swimming (mice [2]; water 2° C., single dose 25 mg/kg i.p.) was 2.10 ± 0.17 min, the Duration of swimming (mice [2]; water 2° C., single dose 50 mg/kg i.p.) was 2.30 ± 0.22 min and the “Duration of swimming at day 28” value (mice [2]; water 25° C.) was 222.03 ± 10.95 min. For the same molecule, the “Duration of swimming vs control” value (mice [2]; water 25° C., single dose 25 mg/kg i.p.) was “+35%”, the “increase of survival time vs control” value (mice [3]; 50 mg/kg) was 65.0% and the “increase of survival time vs control” value (mice [3]; 100 mg/kg) was 147.8%. The “increase of survival time vs control” value (mice [3]; 300 mg/kg) was 591.0%, the Duration of life (mice [3]; 50 mg/kg) was 3.8 ± 0.5 min and the Duration of life (mice [3]; 100 mg/kg) was 5.7 ± 1.2 min. The Duration of life (mice [3]; 300 mg/kg) was 15.9 ± 0.4 min, the “Duration of life of animals” value (rats [4]; 50 mg/kg) was 83.3 ± 7.9 min and the “Duration of life of animals” value (rats [4]; 100 mg/kg) was 123.2 ± 2.9 min. The “surviving mice that did not get sick” value (influenza) was 46%, the “surviving mice that had been ill but survived” value (influenza) was 54% and the “mice died, total in treated groups” value (influenza; all control animals died) was 15%. For the same molecule, the IL-1 (IL-1; [23]) was 1.65 ± 0.03, the IL-1 (IL-1; At 3 months after treatment) was 1.63 ± 0.04 and the “IL-1 level vs baseline values” (IL-1; [24]) was −3.5%. The “IL-1 level vs baseline” value (IL-1; [25]) was −4.6%, the “IL-2 (×10)” value (IL-2; [23]) was 2.09 ± 0.04 and the “IL-2 (×10)” value (IL-2; At 3 months after treatment) was 2.21 ± 0.04. For the same molecule, the “IL-2 level vs baseline values” (IL-2; [24]) was “+8.9%”, the “IL-2 level vs baseline” value (IL-2; [25]) was “+15.1%” and the “IL-3 (×10)” value (IL-3; [23]) was 2.13 ± 0.05. The “IL-3 (×10)” value (IL-3; At 3 months after treatment) was 2.23 ± 0.06, the “IL-3 level vs baseline values” (IL-3; [24]) was “+12.7%” and the “IL-3 level vs baseline” value (IL-3; [25]) was “+18.0%”. The “α-TNF (×100)” value (α-TNF; [23]) was 8.56 ± 0.60, the “α-TNF (×100)” value (α-TNF; At 3 months after treatment) was 7.92 ± 0.54 and the “α-TNF level vs baseline values” (α-TNF; [24]) was −11.6%. The “α-TNF level vs baseline” value (α-TNF; [25]) was −18.2%.
